Assay results as given in patent US10487078B2, “Compositions and methods of targeting mutant K-RAS” (NantBio, Inc., priority 2015, dated 2019).
Where two headings read alike, the source gives them in different places.

Tests used:
Type in all cases: cell-based
K-ras G12D = K-ras G12D (Homo sapiens, UniProt P01116, G12D); assay: G-LISA Ras activation assay, 293H cells transfected with G12D mutant; conditions: 1 hour treatment
Protocol: (§1) 293H cells were seeded in 6-wells at 0.6×10^6 cells per well and transfected next day with 5 μg of Ras wild-type, or G12C, G12D or G12V mutant DNA plasmid vector using transfection reagent Lipofectamine 3000. Next day cells were treated with 3.125-50 μM of Ras compounds for 1 hour. Wild-type transfected cells were subsequently treated with 100 ng/ml EGF for 2 minutes. Cells were washed once in ice-cold PBS, lysed in complete lysis buffer on ice, and processed by G-LISA according to Cytoskeleton protocol.
(§2) In-cell selectivity of the compounds presented herein against a specific K-ras mutant form can also be tested as shown in the following exemplary experiment. 293H cells were seeded in 6-wells and transfected next day with 5 μg of Ras wild-type, or G12C, G12D or G12V mutant DNA plasmid vector. Next day cells were treated with 3.125-50 μM of Ras compounds for 1 hour. Wild-type transfected cells were subsequently treated with 100 ng/ml EGF for 2 minutes. Cells were washed once in ice-cold PBS, lysed in complete lysis buffer on ice, and processed by G-LISA according to Cytoskeleton protocol. FIG. 1 depicts exemplary results.
as §1, with “In still further experiments, the inventors tested selected compounds in a G-LISA assay to compare IC50 values for wild-type and various mutant K-Ras (G12D, G12V) using the following general protocol: 293H” for “293H”

K-ras G12V = K-ras G12V (Homo sapiens, UniProt P01116, G12V); assay: G-LISA Ras activation assay, 293H cells transfected with G12V mutant; conditions: 1 hour treatment
Protocol: as §1, §2
as §1, with “In still further experiments, the inventors tested selected compounds in a G-LISA assay to compare IC50 values for wild-type and various mutant K-Ras (G12D, G12V) using the following general protocol: 293H” for “293H”

[1] = test system: Akt phosphorylation in Panc1 (G12D) cells; assay: In-Cell Western Akt phosphorylation; conditions: EC50, one hour treatment; read-out: In-Cell Western Akt phosporylation Panc1 (G12D)
Protocol: (§3) In-cell phosphorylation assays for Erk and Akt were performed on various of the compounds and exemplary results are shown in Table 3 below using […] and Panc10.05 cell lines for G12D K-ras mutants.
(§4) Cells are seeded in complete medium into black sided, clear-bottom 384-well microplates at 3000 cells/[…]/well. Plates are returned to 37° C. CO2 incubator for 18 hr. Drug is made as 200× in DMSO and diluted into medium to 10×. To each well is added 4 ul 10× test article or controls, and plates are returned to the incubator. Final assay DMSO concentration is 0.5%. After one hour, cells are fixed in formaldehyde, rinsed & permeabilized with triton X-100, and blocked with BSA/Goat serum blocking solution. Primary phospho-Akt and phospho-ERK antibodies are added and plates are incubated overnight at 4° C. Plates are rinsed with Tween-20 wash buffer and secondary antibody (Goat anti-rabbit, Thermofisher) is added. After 2 hours, plates are rinsed in Tween-20 wash buffer, and then PBS. Plates are imaged on the Celigo (Nexcelom) and cellular fluorescence is quantitated. Full inhibition of phospho-Akt is achieved with 1 uM BEZ235 (Sellekchem), while full inhibition of phospho-ERK is achieved with 1 uM MEK Inhibitor II Calbiochem). EC50 values are calculated using Graphpad Prism.

[2] = test system: Akt phosphorylation in Panc10.05 (G12D) cells; assay: In-Cell Western Akt phosphorylation; conditions: EC50, one hour treatment; read-out: In-Cell Western Akt phosporylation Panc10.05 (G12D)
Protocol: as §3, §4

[3] = test system: Erk phosphorylation in Panc10.05 (G12D) cells; assay: In-Cell Western Erk phosphorylation; conditions: EC50, one hour treatment; read-out: In-Cell Western Erk phosporylation Panc10.05 (G12D)
Protocol: as §3, §4

[4] = test system: Erk phosphorylation in Panc1 (G12D) cells; assay: In-Cell Western Erk phosphorylation; conditions: EC50, one hour treatment; read-out: In-Cell Western Erk phosporylation Panc1 (G12D)
Protocol: as §3, §4

Panc10.05 (G12D) cells = assay: 72 hr cell viability (CellTiterBlue); conditions: GI50, 72 hr
Protocol: (§5) Viability assays were performed on exemplary compounds and Table 2 below lists exemplary results for selected compounds tested on wild type (Ishikawa) and various K-ras mutants (Panc1-G12D; Panc10.05-G12D; HCT116-G13D).
(§6) Cells are counted and seeded at 1000 cells/36 ul medium/well into 384-well microplates. Cells are returned to 37° C. CO2 incubator for 18 hr. Drug is made as 200× in DMSO and diluted into medium to 10×. To each well is added 4 ul 10× drug, and plates are returned to the incubator. Final assay DMSO concentration is 0.5%. After 72 hr, 8 ul CellTiterBlue (Promega) is added to each well. After 3 hr, fluorescence (Ex550/Em590) is determined on the Victor Plate Reader (Perkin Elmer). Assay range is determined by DMSO control (100% viability) and 100 uM tamoxifen (0% viability). GI50 values are calculated using Graphpad Prism.

Panc1 (G12D) cells = assay: 72 hr cell viability (CellTiterBlue); conditions: GI50, 72 hr
Protocol: as §5, §6

[5] = test system: Ishikawa (K-Ras wild-type) cells; assay: 72 hr cell viability (CellTiterBlue); conditions: GI50, 72 hr
Protocol: as §5, §6

K-Ras wild-type = K-Ras wild-type (Homo sapiens, UniProt P01116); assay: G-LISA Ras activation assay, 293H cells transfected with Ras wild-type, EGF-stimulated; conditions: 1 hour treatment, 100 ng/ml EGF
Protocol: as §1, §2
as §1, with “In still further experiments, the inventors tested selected compounds in a G-LISA assay to compare IC50 values for wild-type and various mutant K-Ras (G12D, G12V) using the following general protocol: 293H” for “293H”

HCT116 (G13D) cells = assay: 72 hr cell viability (CellTiterBlue); conditions: GI50, 72 hr
Protocol: as §5, §6

[6] = Table 1, G-LISA, 293H transfected, read-out: IC50 (μM) G12D
[7] = Table 5, IC50, 293H transfected, read-out: G-LISA (G12D)
[8] = Table 1, G-LISA, 293H transfected, read-out: IC50 (μM) G12V
[9] = Table 5, IC50, 293H transfected, read-out: G-LISA (G12V)

K-ras G12D, sequence (P01116 1-188 isoform P01116-2 G12D): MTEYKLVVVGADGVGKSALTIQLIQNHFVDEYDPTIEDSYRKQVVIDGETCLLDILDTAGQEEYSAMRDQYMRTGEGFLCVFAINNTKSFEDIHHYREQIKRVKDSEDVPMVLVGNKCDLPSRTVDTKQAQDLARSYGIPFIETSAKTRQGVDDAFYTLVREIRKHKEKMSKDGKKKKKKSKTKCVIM
K-ras G12V, sequence (P01116 1-188 isoform P01116-2 G12V): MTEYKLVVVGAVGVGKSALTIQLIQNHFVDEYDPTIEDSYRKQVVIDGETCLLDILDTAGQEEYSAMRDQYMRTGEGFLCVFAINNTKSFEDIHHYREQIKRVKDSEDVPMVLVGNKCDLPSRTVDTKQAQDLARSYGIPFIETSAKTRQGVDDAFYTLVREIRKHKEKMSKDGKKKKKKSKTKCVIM
K-Ras wild-type, sequence (P01116 1-188 isoform P01116-2): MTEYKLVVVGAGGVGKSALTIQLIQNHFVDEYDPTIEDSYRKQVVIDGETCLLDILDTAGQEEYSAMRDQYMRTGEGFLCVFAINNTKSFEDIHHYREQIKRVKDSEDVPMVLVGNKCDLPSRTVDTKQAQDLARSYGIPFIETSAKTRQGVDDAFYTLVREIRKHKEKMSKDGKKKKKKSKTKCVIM

| SMILES | IC50 (K-ras G12D; [6]) | IC50 (K-ras G12D; [7]) | IC50 (K-ras G12V; [8]) | IC50 (K-ras G12V; [9]) | EC50 [1] | EC50 [2] | EC50 [3] | EC50 [4] | IC50 (Panc10.05 (G12D) cells) | IC50 (Panc1 (G12D) cells) | IC50 [5] | IC50 (K-Ras wild-type; Table 1, G-LISA, 293H transfected, read-out: IC50 (μM) Wild-type) | IC50 (K-Ras wild-type; Table 5, IC50, 293H transfected, read-out: G-LISA (wild type)) | IC50 (HCT116 (G13D) cells) |
| --- | --- | --- | --- | --- | --- | --- | --- | --- | --- | --- | --- | --- | --- | --- |
| Cc1nc(C)c(C(=O)Nc2nc(-c3ccc4c(c3)CCC(=O)N4)c(C)s2)s1 [Compound 4802] | > 25 µM | 27 µM | 17 µM | 17 µM |  |  |  |  |  |  |  |  |  |  |
| CCc1sc(NC(=O)c2sc(C)nc2C)nc1-c1ccc2c(c1)CCC(=O)N2 [Compound 4803] | > 25 µM | 71 µM |  |  |  |  |  |  |  |  |  |  |  |  |
| O=C1CCc2cc(-c3csc(NCc4ccccc4)n3)ccc2N1 [Compound 4824] | > 25 µM | > 25 µM |  |  |  |  |  |  |  |  |  |  |  |  |
| O=C1CCc2cc(-c3csc(NC(=O)c4ccccc4)n3)ccc2N1 [Compound 4825] | > 25 µM | > 25 µM |  |  |  |  |  |  |  |  |  |  |  |  |
| O=C1CCc2cc(-c3csc(NC(=O)c4ncccn4)n3)ccc2N1 [Compound 4826] | > 25 µM | > 25 µM |  |  |  |  |  |  |  |  |  |  |  |  |
| Cc1nc(C(=O)Nc2nc(-c3ccc4c(c3)CCC(=O)N4)cs2)sc1C [Compound 4828] | > 25 µM | > 25 µM |  |  |  |  |  |  |  |  |  |  |  |  |
| O=C1CCc2cc(-c3csc(Nc4ncccn4)n3)ccc2N1 [Compound 4829] | > 25 µM | > 25 µM |  |  |  |  |  |  |  |  |  |  |  |  |
| Cc1nc(C)c(CNc2nc(-c3ccc4c(c3)CCC(=O)N4)cs2)s1 [Compound 4856] | > 25 µM |  |  |  | > 25 µM | > 25 µM | 19 µM | 7 µM | ≥ 25 µM | ≥ 25 µM |  |  |  |  |
| Cc1ccccc1C(=O)Nc1nc(-c2ccc3c(c2)CCC(=O)N3)cs1 [Compound 4874] | 16 µM | 16 µM |  |  | 25 µM | > 25 µM | 14 µM | > 25 µM |  | 12 µM | 3 µM |  |  |  |
| COCc1nc(C)c(C(=O)Nc2nc(-c3ccc4c(c3)CCC(=O)N4)cs2)s1 [Compound 4876] |  |  |  |  | 20 µM | > 25 µM | 17 µM | 9 µM |  | 13 µM | 3 µM |  |  |  |
| Cc1nc(C2CC2)sc1C(=O)Nc1nc(-c2ccc3c(c2)CCC(=O)N3)cs1 [Compound 4877] | 6 µM | 6 µM | 9 µM | 9 µM | 7 µM | 17 µM | 3 µM | 3 µM |  | 5 µM | 1.2 µM | 16 µM | 16 µM |  |
| Cc1nc(-c2ccccc2)sc1C(=O)Nc1nc(-c2ccc3c(c2)CCC(=O)N3)cs1 [Compound 4878] | 19 µM | 19 µM | > 25 µM | > 25 µM | 26 µM | > 25 µM | 13 µM | 19 µM |  | 7 µM | 5 µM |  |  |  |
| Cc1nc(C)c(C(=O)N(Cc2ccccc2)c2nc(-c3ccc4c(c3)CCC(=O)N4Cc3ccccc3)cs2)s1 [Compound 4889] |  |  |  |  | > 25 µM | > 25 µM | > 25 µM | > 25 µM | ≥ 25 µM | ≥ 25 µM | 14 µM |  |  | 21 µM |
